Test results as given in patent US7842324B2 (Senomyx, Inc., priority 2005, dated 2010).

Experiments:
tasters [1] = experiment: Reduced sugar dry beverage mix (strawberry beverage) sensory evaluation; type: in vivo, human; settings: ⅔ sugared strawberry beverage + 1.3 ppm, scale 1 to 10
Experimental: 1000.00 g of the finished beverage was formulated. Compound 23 was diluted with maltodextrin (1:100) to form a sweetener concentrate composition prior to addition to the other dry beverage base ingredients. 50 g of the maltodextrin was placed on the bottom of a clean and dried mortar and 1.0000 g of compound 23 was added and slowly ground into the maltodextrin with the pestle. The remaining maltodextrin was added to a planetary mixer with a wire whip attachment (KITCHEN AIDE™ Mixer), and the contents of the mortar were placed into the mixer and the mixer was turned on to a slow speed (setting 3) and allowed to mix for an additional 10 minutes.
The contents of the glass container were re-mixed in the glass container before taking out aliquots of the dry diluted sweet enhancer. Using the KITCHEN AIDE™ Mixer with the wire whip attachment, the granulated ingredients of the beverage base (sugar, acid) were mixed slowly at speed 2 using the wire whip attachment for 3 minutes and 0.13 grams of the 1:100 diluted solid sweetener concentrate composition was added and mixed at speed 3 for 5 minutes. Calcium silicate was added and allowed to mix for another 5 minutes until the silicate was evenly dispersed. The dry flavor and dry color were added last and allowed to mix for another 10 minutes. A plastic spatula was used to scrape the inside of the mixing bowl to ensure complete recovery of the dry beverage base composition.
The water was placed in a stainless steel 3 L cylinder and a LIGHTNIN™ Mixer was set at 500 to 650 rpms using a 2.5 inch (6.35 cm) impeller with three straight blades. This was used to create a vortex in the water. The impeller blades were positioned at a 30 to 45° angle. The dry beverage base (53.525 grams) was slowly added to the vortex of the water and was mixed for an additional 5 minutes until all the sugar and acids had dissolved.
Samples of control sugared strawberry beverages containing sugar at the full level indicated above (50, 66.67, 80, 90, and 100% of full sugar), and the strawberry beverage comprising ⅔ sugar+1.3 ppm compound 23 were given to tasters in randomized order. Tasters used an anchored scale from 1 to 10 (1 being no sweetness, 10 being intense sweetness). Tasters were instructed to hold the beverage in their mouth for at least 5 seconds, expectorate the sample, and evaluate/rank the “peak” of sweetness intensity of their various samples. They were allowed to re-taste and re-position their samples on the physical line scale. Once satisfied with their rankings, they wrote down their code and corresponding rank score.

Human Panelists = experiment: Line Scale sensory testing human taste test (Table C); type: in vivo; settings: 5 μM compound + 6% fructose/glucose, low sodium buffer pH 7.1
From the text: Purpose: To create a dose-response curve for perceived sweetness intensity of fructose-glucose concentrations. Test samples containing experimental compound are compared to this dose-response curve to determine equivalent sweetness intensity. This type of study requires a number of evaluations in order to obtain statistically significant data, so the test may be repeated with the same or additional panelists.
Overview: A group of eight or more panelists taste solutions including fructose-glucose at various concentrations, as well as the experimental compound, both with and without added fructose-glucose. Panelists rate sweetness intensity of all samples on an unstructured horizontal line scale, anchored from 0 to 10, where 0 equals no sweetness and 10 equals intense sweetness. Scores for sweetness intensity are averaged across panelists. Then using the average scores and/or equation of the line for the fructose-glucose dose-response curve, equivalent sweetness fructose-glucose concentrations are determined for the samples containing experimental compound.
Procedure: Eight or more subjects are used for the Line Scale tests. Subjects have been previously familiarized with the key attribute taste and are trained to use the 0 to 10 unstructured line scale. Subjects refrain from eating or drinking (except water) for at least 1 hour prior to the test. Subjects eat a cracker and rinse with water several times to clean the mouth.
Fructose-glucose solutions are provided at a wide range of concentrations, such as 0%, 2%, 4%, 6%, 8%, and 10% fructose-glucose, in order to create the dose-response curve. Samples containing experimental compound are prepared both alone and in a 6% fructose-glucose solution. All samples are made up in low sodium buffer pH 7.1. In order to aid dispersion, solutions can also be made up in 0.1% ethanol.
The solutions are dispensed in 20 ml volumes into 1 oz. sample cups and served to the subjects at room temperature. All samples are presented in randomized counterbalanced order to reduce response bias. Further, two sessions of testing may be used to check panel precision.
Subjects taste each sample individually and rate sweetness intensity on the line scale prior to tasting the next sample. All samples are expectorated. Subjects may retaste the samples but can only use the volume of sample given. Subjects must rinse with water between samples. Eating an unsalted cracker between sample pairs may be required depending on the samples tasted.
The scores for each sample are averaged across subjects and standard error is calculated. The dose-response curve is plotted graphically, and this may be used to ensure the panel is rating accurately; i.e. increasing the concentration of fructose-glucose should correspond to increased average scores for sweetness. A 2-way ANOVA (factors being samples and panelists) and multiple comparison tests (such as Tukey's Honestly Significant Difference test) can be used to determine differences among samples and/or panelists. A 3-way ANOVA, with sessions as the third factor, can be used to determine if there is any difference in the ratings between sessions.

tasters [2] = experiment: Reduced sugar ice cream sensory evaluation; type: in vivo, human; settings: for Average Sweet Intensity Score: scale 1 to 10
Experimental: A water soluble liquid sweetener concentrate composition comprising 0.1% by weight of Example 23 in USP grade propylene glycol can be prepared by mixing the amide compound and propylene glycol by stirring the composition while warming to about 50° C., then milling the resulting liquid in a Silverson mill with a square basket cage at 300-600 rpms, to further ensure homogeneity of the liquid. An alternative method actually used was that the amide compound was dissolved in ethanol (1:1000 dilution), sonicated for 20 minutes, and 19.80 grams of the diluted sweet enhancer sample was added to the vanilla flavoring (which contains 20-30% ethyl alcohol) and sonicate that sample for an additional 20 minutes.
Heavy cream and whole milk were placed into a 5000 mL stainless steel cylinder and mixed using a LIGHTNIN™ Mixer at 500 to 650 rpms using a 2.5 inch (6.35 cm) impeller with three straight blades. A vortex was created by positioning the impeller blades at a 30 to 45° angle. The sweet enhancer was added using the vanilla/ethanol mixture. Some milk/cream was added back to the weigh dish of the sweet enhancer to ensure all the amide compound was removed from the weigh dish. The sugar/stabilizer mixture was slowly added to the vortex of the mixing milk/cream solution. The resulting solution was mixed for 10 minutes until the sugar dissolved and the stabilizer rehydrated. Care was taken to ensured that no lumps or undissolved stabilizer existed in the solution. The remaining sugar was added to the vortex and mixing was continued for an additional 10 minutes. Egg yolks and vanilla flavor were next added and the mixing continued for 5 more minutes.
Ice cream samples were evaluated by tasters, using a rank rating design. Tasters used an anchored scale from 1 to 10 (1 being no sweetness, 10 being intense sweetness). Three digit coded samples were randomized and the following samples were given to tasters: full sugar version, ⅔ sugared version, ⅔ sugared+3.3 ppm or 6.6 ppm of compound 23. Tasters were instructed to hold the ice cream samples in their mouth for at least 5 seconds, expectorate the sample, and evaluate/rank the “peak” of sweetness intensity.

CC(C)CNC(=O)C(C)(C)c1ccc(-c2cncc(C#N)c2)cc1 [Compound 23, 2-(4-(5-cyanopyridin-3-yl)phenyl)-N-isobutyl-2-methylpropanamide]
Sweet Score from Individual Tastors #1 (tasters [1]): 8
Sweet Score from Individual Tastors #2 (tasters [1]): 7
Sweet Score from Individual Tastors #3 (tasters [1]): 7
Sweet Score from Individual Tastors #4 (tasters [1]): 8
Sweet Score from Individual Tastors #5 (tasters [1]): 7.5
Sweet Score from Individual Tastors #6 (tasters [1]): 7
Sweet Score from Individual Tastors #7 (tasters [1]): 8
Sweet Score from Individual Tastors #8 (tasters [1]): 8
Average Scores (tasters [1]; mean of eight tasters): 7.56
Perceived Equivalent Sweet Solution (Human Panelists): Equal to 10% fructose/ % fructose/glucose
sweetness compared with ⅔ sugared control ice cream (tasters [2]; 3.3 ppm and 6.6 ppm in ⅔ sugared ice cream): scored higher in sweetness than the ⅔ sugared control sample
sweetness compared with fully sugared ice cream (tasters [2]; 6.6 ppm in ⅔ sugared ice cream): nearly as sweet as the fully sugared ice cream
Qualitative feedback of tasters (tasters [2]; ice cream samples containing compound 23): “slight lingering” and “slight delay of sweetness”
Average Sweet Intensity Score (tasters [2]; ⅔ sugared ice cream + 3.3 ppm): 5.143
Average Sweet Intensity Score (tasters [2]; ⅔ sugared ice cream + 6.6 ppm): 7.357
